# Data: ChEMBL document CHEMBL5537198, “Discovery and Characterization of a Bicyclic Peptide (Bicycle) Binder to Thymic Stromal Lymphopoietin” (J Med Chem, 2024)
# Assays:
# in vivo [1] = details: Wistar Han, rat, lung
# in vivo [2] = details: Wistar Han, rat, at 0.6 to 2 µmol/kg
# in vivo [3] = details: Wistar Han, rat, iv
# in vitro [4] = details: Wistar Han, rat, lung S9 fraction
# in vitro [5] = details: rat, plasma
# in vivo [6] = details: Wistar Han, rat, iv; remark: listed apart in the source
# in vivo [7] = details: Wistar Han, rat, iv; remark: listed apart in the source
# in vivo [8] = details: Wistar Han, rat, urine, iv; at 0.6 to 2 µmol/kg
# in vitro [9] = details: rat, plasma; remark: listed apart in the source
# in vitro [10] = details: human, lung S9 fraction
Structure (SMILES),MRT (in vivo [1]),bioavailability (in vivo [2]),half-life (in vivo [3]),"half-life at 1 h, 10 µM (in vitro [4])",remaining at 18 h (in vitro [5]),Vd (in vivo [6]),clearance (in vivo [7]),dose excreted (in vivo [8]),remaining at 2 h (in vitro [9]),half-life (in vitro [10])
CC(=O)N[C@H]1CSCCC(=O)N2CN3CN(C2)C(=O)CCSC[C@H](NC(=O)[C@H](CC(=O)O)NC(=O)[C@H](CCC(=O)O)NC(=O)[C@H](CC(C)C)NC(=O)[C@H](Cc2c[nH]c4ccccc24)NC(=O)[C@H](CCC(N)=O)NC1=O)C(=O)N[C@@H](Cc1c[nH]c2ccccc12)C(=O)N[C@@H](CCCNC(=N)N)C(=O)NCC(=O)N[C@@H](Cc1ccc(F)cc1)C(=O)N[C@H](C(=O)N[C@@H](C)C(N)=O)CSCCC3=O,1.2 h,3.4%,0.0833 h,2.4 h,> 50%,0.3 L/kg,42 mL/min/kg,–,–,–
CC(=O)N[C@H]1CSCCC(=O)N2CN3CN(C2)C(=O)CCSC[C@H](NC(=O)[C@H](CC(=O)O)NC(=O)[C@H](CCC(=O)O)NC(=O)[C@H](CC(C)(C)C)NC(=O)C(Cc2cn(C)c4ccccc24)NC(=O)[C@H](CCC(N)=O)NC1=O)C(=O)N[C@@H](Cc1cn(C)c2ccccc12)C(=O)N[C@@H](CCCNC(=N)N(C)C)C(=O)NCC(=O)N[C@@H](Cc1ccc(F)cc1)C(=O)N[C@H](C(N)=O)CSCCC3=O (some centres undefined),1.3 h,24.7%,0.433 h,–,> 50%,0.42 L/kg,12 mL/min/kg,1%,–,–
CC(=O)N[C@H]1CSCCC(=O)N2CN3CN(C2)C(=O)CCSC[C@@H](NC(=O)[C@H](CC(N)=O)NC(=O)[C@H](CCC(=O)O)NC(=O)[C@H](CC(C)C)NC(=O)[C@H](Cc2c[nH]c4ccccc24)NC(=O)[C@H](Cc2c[nH]cn2)NC1=O)C(=O)N[C@@H](Cc1c[nH]c2ccccc12)C(=O)N[C@@H](CCCNC(=N)N)C(=O)NCC(=O)N[C@@H](Cc1ccccc1)C(=O)N[C@H](C(N)=O)CSCCC3=O,–,–,–,< 0.0833 h,–,–,–,–,90%,< 5 min
CC(=O)N[C@H]1CSCCC(=O)N2CN3CN(C2)C(=O)CCSC[C@H](NC(=O)[C@H](CC(=O)O)NC(=O)[C@H](CCC(N)=O)NC(=O)[C@H](CC(C)(C)C)NC(=O)[C@H](Cc2cn(C)c4ccccc24)NC(=O)[C@H](C)N(C)C1=O)C(=O)N[C@@H](Cc1cn(C)c2ccccc12)C(=O)N[C@@H](CCCNC(=N)N(C)C)C(=O)NCC(=O)N[C@@H](Cc1ccc(F)cc1)C(=O)N[C@H](C(N)=O)CSCCC3=O,–,–,–,2.38 h,> 50%,–,–,–,–,–
CC(=O)N[C@H]1CSCCC(=O)N2CN3CN(C2)C(=O)CCSC[C@H](NC(=O)[C@H](CC(N)=O)NC(=O)[C@H](CCC(=O)O)NC(=O)[C@H](CC(C)C)NC(=O)[C@H](Cc2c[nH]c4ccccc24)NC(=O)[C@H](Cc2c[nH]cn2)NC1=O)C(=O)N[C@@H](Cc1c[nH]c2ccccc12)C(=O)N[C@@H](CCCNC(=N)N)C(=O)NCC(=O)N[C@@H](Cc1ccccc1)C(=O)N[C@H](C(N)=O)CSCCC3=O,> 24 h,33.9%,1.1 h,–,> 50%,0.6 L/kg,6.3 mL/min/kg,64%,–,–
CC(=O)N[C@H]1CSCCC(=O)N2CN3CN(C2)C(=O)CCSC[C@@H]2NC(=O)[C@H](CC(=O)O)NC(=O)[C@H](CCC(=O)O)NC(=O)[C@H](CC(C)C)NC(=O)[C@H](CC/C=C/CC[C@H](NC(=O)[C@H](Cc4c[nH]c5ccccc45)NC2=O)C(=O)NCC(=O)N[C@@H](Cc2ccc(F)cc2)C(=O)N[C@H](C(N)=O)CSCCC3=O)NC(=O)[C@H](CCC(N)=O)NC1=O,0.5 h,5.9%,0.05 h,0.8 h,> 50%,0.21 L/kg,46 mL/min/kg,0.1%,–,–
CC(=O)N[C@H]1CSCCC(=O)N2CN3CN(C2)C(=O)CCSC[C@H](NC(=O)[C@H](CC(=O)O)NC(=O)[C@H](CCC(N)=O)NC(=O)[C@H](CC(C)(C)C)NC(=O)[C@H](Cc2cccc4ccccc24)NC(=O)[C@H](C)N(C)C1=O)C(=O)N[C@@H](Cc1cn(C)c2ccccc12)C(=O)N[C@@H](CCCNC(=N)N(C)C)C(=O)NCC(=O)N[C@@H](Cc1ccc(F)cc1)C(=O)N[C@H](C(=O)N[C@@H](C)C(N)=O)CSCCC3=O,2.4 h,23%,0.75 h,–,> 50%,0.41 L/kg,6.4 mL/min/kg,0.9%,–,–
CC(=O)N[C@H]1CSCCC(=O)N2CN3CN(C2)C(=O)CCSC[C@@H]2NC(=O)[C@H](CC(=O)O)NC(=O)[C@H](CCC(=O)O)NC(=O)[C@H](CC(C)C)NC(=O)[C@H](CCCCCC[C@H](NC(=O)[C@H](Cc4c[nH]c5ccccc45)NC2=O)C(=O)NCC(=O)N[C@@H](Cc2ccc(F)cc2)C(=O)N[C@H](C(N)=O)CSCCC3=O)NC(=O)[C@H](CCC(N)=O)NC1=O,–,–,–,0.567 h,> 50%,–,–,–,–,–
CC(=O)N[C@H]1CSCCC(=O)N2CN3CN(C2)C(=O)CCSC[C@H](NC(=O)[C@H](CC(=O)O)NC(=O)[C@H](CCC(=O)O)NC(=O)[C@H](CC(C)C)NC(=O)[C@H](Cc2cccc4ccccc24)NC(=O)[C@H](CCC(N)=O)NC1=O)C(=O)N[C@@H](Cc1c[nH]c2ccccc12)C(=O)N[C@@H](CCCNC(=N)N(C)C)C(=O)NCC(=O)N[C@@H](Cc1ccc(F)cc1)C(=O)N[C@H](C(=O)N[C@@H](C)C(N)=O)CSCCC3=O,2.2 h,8.6%,0.117 h,–,> 50%,0.23 L/kg,23 mL/min/kg,0.3%,–,–
CC(=O)N[C@H]1CSCCC(=O)N2CN3CN(C2)C(=O)CCSC[C@H](NC(=O)[C@H](CC(=O)O)NC(=O)[C@H](CCC(=O)O)NC(=O)[C@H](CC(C)C)NC(=O)[C@H](Cc2cccc4ccccc24)NC(=O)[C@H](CCC(N)=O)NC1=O)C(=O)N[C@@H](Cc1c[nH]c2ccccc12)C(=O)N[C@@H](CCCNC(=N)N(C)C)C(=O)NCC(=O)N[C@@H](Cc1ccc(F)cc1)C(=O)N[C@H](C(N)=O)CSCCC3=O,–,–,–,1.38 h,> 50%,–,–,–,–,–
CC(=O)N[C@H]1CSCCC(=O)N2CN3CN(C2)C(=O)CCSC[C@H](NC(=O)[C@@H](CC(=O)O)NC(=O)[C@H](CCC(=O)O)NC(=O)[C@H](CC(C)C)NC(=O)[C@H](Cc2c[nH]c4ccccc24)NC(=O)[C@@H](CCC(N)=O)NC1=O)C(=O)N[C@@H](Cc1c[nH]c2ccccc12)C(=O)N[C@@H](CCCNC(=N)N)C(=O)NCC(=O)N[C@@H](Cc1ccc(F)cc1)C(=O)N[C@H](C(=O)O)CSCCC3=O,1 h,2.3%,0.0333 h,1.12 h,> 50%,0.13 L/kg,45 mL/min/kg,–,–,–
CC(=O)N[C@H]1CSCCC(=O)N2CN3CN(C2)C(=O)CCSC[C@H](NC(=O)[C@H](CC(=O)O)NC(=O)[C@H](CCC(N)=O)NC(=O)[C@H](CC(C)(C)C)NC(=O)[C@H](Cc2cn(C)c4ccccc24)NC(=O)[C@H](CCC(N)=O)NC1=O)C(=O)N[C@@H](Cc1cn(C)c2ccccc12)C(=O)N[C@@H](CCCNC(=N)N(C)C)C(=O)NCC(=O)N[C@@H](Cc1ccc(F)c(Cl)c1)C(=O)N[C@H](C(N)=O)CSCCC3=O,1.8 h,22.5%,0.583 h,1.53 h,> 50%,0.32 L/kg,6.4 mL/min/kg,0.8%,–,–
CC(=O)N[C@H]1CSCCC(=O)N2CN3CN(C2)C(=O)CCSC[C@H](NC(=O)[C@H](CC(=O)O)NC(=O)[C@H](CCC(=O)O)NC(=O)[C@H](CC(C)C)NC(=O)[C@H](Cc2c[nH]c4ccccc24)NC(=O)[C@H](CCC(N)=O)NC1=O)C(=O)N[C@@H](Cc1c[nH]c2ccccc12)C(=O)N[C@@H](CCCNC(=N)N)C(=O)NCC(=O)N[C@@H](Cc1ccc(F)cc1)C(=O)N[C@H](C(N)=O)CSCCC3=O,–,–,–,0.583 h,> 50%,–,–,–,–,–
